The text below walks through data of patent publication US8637516B2 (IRM LLC, priority 2010, dated 2014).

As usually defined, the half-life is the time in which the quantity being followed falls by half. Usually AUC stands for the area under the concentration-time curve, a measure of exposure. Lower therefore signals less exposure. For orientation: Cmax means the maximum level reached in the sampled fluid or tissue.

Where two headings read alike, the source gives them in different places.

The target of data set [1] is T1, Ba/F3 cells transformed with human Tel-TrkA (Homo sapiens, UniProt P04629).
T1 construct: expressed in transfected cells; host or cells: Ba/F3 murine hematopoietic progenitor cells (luciferase expressing); the other entry of the earlier key: ETV6 (P41212, Transcription factor ETV6)
T1 sequence (P04629 510-796 limits assumed): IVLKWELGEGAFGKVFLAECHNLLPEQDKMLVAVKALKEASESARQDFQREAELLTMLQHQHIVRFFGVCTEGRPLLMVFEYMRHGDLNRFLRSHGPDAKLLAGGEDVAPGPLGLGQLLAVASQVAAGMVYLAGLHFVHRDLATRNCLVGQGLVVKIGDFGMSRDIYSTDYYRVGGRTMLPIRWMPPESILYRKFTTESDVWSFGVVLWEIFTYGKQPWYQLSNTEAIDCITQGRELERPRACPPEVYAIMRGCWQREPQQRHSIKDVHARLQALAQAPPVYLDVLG
The experiment in a line: Proliferation of Ba/F3 cells transformed with human Tel-TrkA (Ba/F3 Tel-TrkA). It counts as cell-based. The source says:
Compound dilutions were made in 384 well plates.
The emited luminiscence is quantified using ViewLux (PerkinElmer).

For the next data set, the system named is parental Ba/F3 cells. The experiment in a line: Proliferation of parental (untransformed, wt) Ba/F3 cells (BAF3/WT). The settings on record: Mus musculus, Table 1, parental cells with IL3, 48 hours. In kind it is cell-based, murine. In outline:
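Parental Ba/F3 cells, maintained with mouse IL-3, were plated at 700 cells/well with compound (0.17 nM to 10 uM, 3-fold dilutions). After 48 h at 37 °C, proliferation was read by Bright-Glo luminescence.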

Data set [2] can be described thus: Rat PK (PO 10 mg/kg, IV 3 mg/Kg). The settings on record: for F / clearance / half-life / Vd / AUC / Cmax: Rat; for F / AUC / Cmax: PO 10 mg/kg, MC/Tween 80 suspension; for F / clearance / half-life / Vd: IV 3 mg/Kg; for clearance / half-life / Vd / AUC / Cmax: in vivo; for Vd: read-out: Vss. It counts as in vivo.
Setting [3] is: Table 1, 48 hours, Bright Glo luminescence, read-out: Ba/F3 Tel-TrkA.

Consider `NC(=O)c1cnc2ccc(N3C[C@@H](F)C[C@@H]3c3cc(F)ccc3F)nn12` [X-242], for which the IC50 in data set [1] (setting [3]) turned out to be 0.5 nM. In addition, the IC50 in data set [1] (Table 2, read-out: Ba/F3_Te1-Trk-A) came to 0.5 nM. In addition, in the data set with parental Ba/F3 cells, the IC50 came to 2450 nM. Further, in data set [2], the F was 28.2%, the clearance was 18.4 mL/min/kg, the half-life came out at 74.4 min and the Vd is 1.58 L/kg. In addition, in data set [2], the AUC stood at 7.09 µM·h and the Cmax worked out at 1730 nM. In data set [2] (in words), the “AUC compared with compound #3 of WO2010/033941” value was “significant and unexpected increases”; the “Cmax compared with compound #3 of WO2010/033941” value is “significant and unexpected increases”.

On to `CC(=O)Nc1cnc2ccc(N3CCC[C@@H]3c3cc(F)ccc3F)nn12` [reference compound], for which, in data set [2], the F is 1.5%, the clearance was determined as 79.2 mL/min/kg, the half-life was found to be 12 min and the Vd is 1 L/kg. In data set [2], the AUC was 0.087 µM·h and the highest level (Cmax) was 61 nM.

As for `NCC(=O)Nc1cnc2ccc(N3CCC[C@@H]3c3cccc(F)c3)nn12` [X-193], the figures for the IC50 (in data set [1] (setting [3]); with parental Ba/F3 cells) were 118 nM and > 10000 nM, respectively.

Turning to `O=C(NCCN1CCCC1=O)c1cnc2ccc(N3CCC[C@@H]3c3cccc(F)c3)nn12` [X-86], the IC50 was 191 nM in data set [1] (setting [3]) and > 10000 nM with parental Ba/F3 cells.

`CCS(=O)(=O)N1CCC(NC(=O)c2cnc3ccc(N4CCC[C@@H]4c4cccc(F)c4)nn23)CC1` [X-27]: the IC50 in data set [1] (setting [3]) was 17 nM; with parental Ba/F3 cells it was > 10000 nM.

On to `COCCC(=O)Nc1cnc2ccc(N3CCC[C@@H]3c3cccc(F)c3)nn12` [X-173], for which the IC50 is 229 nM in data set [1] (setting [3]) and > 10000 nM with parental Ba/F3 cells.

Turning to `O=C(NCC1CCCCC1)c1cnc2ccc(N3CCC[C@@H]3c3cccc(F)c3)nn12` [X-95], the results for the IC50 (in data set [1] (setting [3]); in the data set on parental Ba/F3 cells) were 118 nM and > 10000 nM, respectively.

For `O=C(NC1CCCC1)c1cnc2ccc(N3CCC[C@@H]3c3cccc(F)c3)nn12` [X-48], the values for the IC50 (in data set [1] (setting [3]); with parental Ba/F3 cells) were 37 nM and > 10000 nM, respectively.

As for `O=C(NCc1ccccc1F)c1cnc2ccc(N3CCC[C@@H]3c3cccc(F)c3)nn12` [X-69], the figures for the IC50 (in data set [1] (setting [3]); in the data set with parental Ba/F3 cells) were 104 nM and > 10000 nM, respectively.

`N#Cc1cccc(NC(=O)c2cnc3ccc(N4CCC[C@@H]4c4cccc(F)c4)nn23)c1` [X-65, (R)-N-(3-cyanophenyl)-6-(2-(3-fluorophenyl)pyrrolidin-1-yl)imidazo[1,2-b]pyridazine-3-carboxamide]: the IC50 was 92 nM in data set [1] (setting [3]) and > 9510 nM in the data set with parental Ba/F3 cells.

Consider `CC1(C)CCC(CNC(=O)c2cnc3ccc(N4CCC[C@@H]4c4cccc(F)c4)nn23)O1` (some centres unmarked) [X-36], for which the IC50 in data set [1] (setting [3]) is 120 nM; in the data set on parental Ba/F3 cells, > 10000 nM.

On to `O=C(NO)c1cnc2ccc(N3C[C@@H](F)C[C@@H]3c3cccc(F)c3)nn12` [X-153], for which the IC50 in data set [1] (setting [3]) is 10 nM; with parental Ba/F3 cells, > 10000 nM.

Consider `NS(=O)(=O)CCNC(=O)c1cnc2ccc(N3C[C@@H](F)CC3c3cccc(F)c3)nn12` (some centres unmarked) [X-118], for which the figures for the IC50 (in data set [1] (setting [3]); with parental Ba/F3 cells) were 54 nM and > 10000 nM, respectively.

Take `CCONC(=O)c1cnc2ccc(N3CCC[C@@H]3c3cccc(F)c3)nn12` [X-149]: the IC50 in data set [1] (setting [3]) was 23 nM; in the data set with parental Ba/F3 cells, > 10000 nM.

For `CC(=O)NCC(=O)Nc1cnc2ccc(N3CCC[C@H]3c3cccc(F)c3)nn12` [X-201], the IC50 in data set [1] (setting [3]) was 392 nM; with parental Ba/F3 cells it was > 10000 nM.

For the molecule `O=C(NCc1ccc(Cl)nc1)c1cnc2ccc(N3CCC[C@@H]3c3cccc(F)c3)nn12` [X-57], the IC50 in data set [1] (setting [3]) was 190 nM; in the data set with parental Ba/F3 cells, > 10000 nM.

On to `CCN(CC)CCCNC(=O)c1cnc2ccc(N3CCC[C@H]3c3cccc(F)c3)nn12` [X-40], for which the IC50 is 951 nM in data set [1] (setting [3]) and > 10000 nM in the data set with parental Ba/F3 cells.

`CC(C)[C@H](CO)NC(=O)c1cnc2ccc(N3CCC[C@@H]3c3cccc(F)c3)nn12` [X-102]: the IC50 in data set [1] (setting [3]) was 31 nM; in the data set on parental Ba/F3 cells, > 10000 nM.

Regarding `CCNC(=O)c1cnc2ccc(N3CCC[C@@H]3c3cccc(F)c3)nn12` [X-55], the IC50 in data set [1] (setting [3]) was 7 nM; in the data set on parental Ba/F3 cells, > 9620 nM.

Regarding `N#Cc1cc(F)cc([C@H]2C[C@H](F)CN2c2ccc3ncc(C(N)=O)n3n2)c1` [X-244], the IC50 was 61 nM in data set [1] (setting [3]) and > 10000 nM in the data set on parental Ba/F3 cells.

Regarding `CCOCC(=O)Nc1cnc2ccc(N3CCC[C@@H]3c3cccc(F)c3)nn12` [X-168, (R)-2-ethoxy-N-(6-(2-(3-fluorophenyl)pyrrolidin-1-yl)imidazo[1,2-b]pyridazin-3-yl)acetamide], the values for the IC50 (in data set [1] (setting [3]); in the data set with parental Ba/F3 cells) were 17 nM and > 10000 nM, respectively.

With `O=C(NCc1ccc(F)cc1)c1cnc2ccc(N3CCCC3c3cccc(F)c3)nn12` (centres unmarked) [X-24], the IC50 in data set [1] (setting [3]) was 236 nM; in the data set with parental Ba/F3 cells, > 10000 nM.

Turning to `O=C(NC1CCNCC1)c1cnc2ccc(N3C[C@@H](F)C[C@@H]3c3cccc(F)c3)nn12` [X-120], the IC50 in data set [1] (setting [3]) was 331 nM; in the data set with parental Ba/F3 cells it was > 10000 nM.

For `CN(C)CCNC(=O)c1cnc2ccc(N3CCC[C@@H]3c3cccc(F)c3)nn12` [X-56], the IC50 in data set [1] (setting [3]) was 676 nM; in the data set with parental Ba/F3 cells it was > 10000 nM.

With `Fc1cccc([C@H]2CC(F)(F)CN2c2ccc3ncc(Br)n3n2)c1` [X-245, (R)-3-bromo-6-(4,4-difluoro-2-(3-fluorophenyl)pyrrolidin-1-yl)imidazo[1,2-b]pyridazine], the results for the IC50 (in data set [1] (setting [3]); in the data set with parental Ba/F3 cells) were 44 nM and > 10000 nM, respectively.

Regarding `O=C(NCC(F)F)c1cnc2ccc(N3C[C@@H](F)C[C@@H]3c3cccc(F)c3)nn12` [X-114], the IC50 was found to be 1 nM in data set [1] (setting [3]) and 7490 nM in the data set with parental Ba/F3 cells.

As for `O=C(N[C@@H]1CCOC1=O)c1cnc2ccc(N3CCC[C@@H]3c3cccc(F)c3)nn12` [X-100], the figures for the IC50 (in data set [1] (setting [3]); in the data set with parental Ba/F3 cells) were 27 nM and > 10000 nM, respectively.

For `[2H]C1([2H])C(c2cccc(F)c2)N(c2ccc3ncc(C(N)=O)n3n2)C([2H])([2H])C1([2H])[2H]` (centres unmarked) [X-12], the results for the IC50 (in data set [1] (setting [3]); in the data set on parental Ba/F3 cells) were 105 nM and > 10000 nM, respectively.

On to `O=C(NCC1CC1)c1cnc2ccc(N3CCC[C@@H]3c3cccc(F)c3)nn12` [X-90], for which the IC50 in data set [1] (setting [3]) was 14 nM; with parental Ba/F3 cells, > 10000 nM.

For the molecule `COc1ccc(OCC(=O)Nc2cnc3ccc(N4CCC[C@@H]4c4cccc(F)c4)nn23)cc1` [X-186], the IC50 was 78 nM in data set [1] (setting [3]) and > 10000 nM with parental Ba/F3 cells.

With `O=C(NCc1cccc(F)c1)c1cnc2ccc(N3CCC[C@@H]3c3cccc(F)c3)nn12` [X-74], the IC50 was 70 nM in data set [1] (setting [3]) and > 10000 nM in the data set with parental Ba/F3 cells.

`N#Cc1cnc2ccc(N3CCC[C@@H]3c3cccc(F)c3)nn12` [X-2, (R)-6-(2-(3-fluorophenyl)pyrrolidin-1-yl)imidazo[1,2-b]pyridazine-3-carbonitrile]: the IC50 is 268 nM in data set [1] (setting [3]) and > 10000 nM with parental Ba/F3 cells.

As for `N#Cc1cnc2ccc(N3CC(F)(F)C[C@@H]3c3cccc(F)c3)nn12` [X-246, (R)-6-(4,4-difluoro-2-(3-fluorophenyl)pyrrolidin-1-yl)imidazo[1,2-b]pyridazine-3-carbonitrile], the IC50 in data set [1] (setting [3]) is 56 nM; in the data set with parental Ba/F3 cells, > 10000 nM.

Consider `N/C(=N\OCCO)c1cnc2ccc(N3CCC[C@@H]3c3cccc(F)c3)nn12` [X-229], for which the IC50 is 331 nM in data set [1] (setting [3]) and > 10000 nM with parental Ba/F3 cells.

Consider `C[C@H](O)C(=O)N1CCC(NC(=O)c2cnc3ccc(N4CCC[C@@H]4c4cccc(F)c4)nn23)CC1` [X-34], for which the IC50 is 76 nM in data set [1] (setting [3]) and > 10000 nM with parental Ba/F3 cells.

`O=C(NOCCO)c1cnc2ccc(N3CCC[C@@H]3c3cccc(F)c3)nn12` [X-147]: the IC50 in data set [1] (setting [3]) was 31 nM; with parental Ba/F3 cells, > 10000 nM.

As to `CC(C)(C)OC(=O)Nc1cnc2ccc(N3CCC[C@@H]3c3cccc(F)c3)nn12` [X-233], the results for the IC50 (in data set [1] (setting [3]); in the data set with parental Ba/F3 cells) were 379 nM and > 10000 nM, respectively.

Take `CC(C)C[C@H](CO)NC(=O)c1cnc2ccc(N3CCC[C@@H]3c3cccc(F)c3)nn12` [X-107]: the results for the IC50 (in data set [1] (setting [3]); with parental Ba/F3 cells) were 40 nM and > 10000 nM, respectively.
